Data as given in publication PMC11800161 (ACS Omega, 2025).
Converted amounts (≈) assume the structure as drawn.

Columns and labels:
S. faecalis (MTCC- 0459) = experiment: Broth microdilution MIC/MBC, S. faecalis; format: cell-based, Streptococcus faecalis; details: for MIC: Enterococcus faecalis, MTCC0459; for antibacterial potency relative to penicillin G (times greater): by MIC, organism not named in the sentence (values match S. faecalis)
E. coli (ATCC- 25955) = experiment: microbe, parasite or virus in culture; format: cell-based; details: Escherichia coli, ATCC25955
[1] = test system: Bacillus pumilis (MTCC- 2296); experiment: Broth microdilution MIC/MBC, B. pumilis; format: cell-based; details: for potency relative to penicillin G (times greater): B. pumilis, by MIC; for MIC: Bacillus, MTCC2296
[2] = test system: hemolytic activity of E. coli; experiment: Hemolysin inhibition assay, E. coli; format: cell-based; details: at 75%MBC, control 100% hemolysis
[3] = test system: hemolytic activity of S. faecalis; experiment: Hemolysin inhibition assay, S. faecalis; format: cell-based; details: at 75%MBC, control 100% hemolysis
[4] = test system: Saccharomyces cerevisiae (ATCC-9763); experiment: Broth microdilution MIC/MFC, S. cerevisiae; format: cell-based; details: ATCC9763
[5] = test system: Candida albicans (ATCC-10231); experiment: Broth microdilution MIC/MFC, C. albicans; format: cell-based; details: ATCC10231
[6] = test system: Enterobacter cloacae (ATCC- 23355); format: cell-based; details: E. cloacae
E. coli MurA = E. coli MurA (Escherichia coli, UniProt P0A749); experiment: MurA enzyme inhibition assay; format: biochemical
E. coli MurA, sequence (P0A749 whole entry): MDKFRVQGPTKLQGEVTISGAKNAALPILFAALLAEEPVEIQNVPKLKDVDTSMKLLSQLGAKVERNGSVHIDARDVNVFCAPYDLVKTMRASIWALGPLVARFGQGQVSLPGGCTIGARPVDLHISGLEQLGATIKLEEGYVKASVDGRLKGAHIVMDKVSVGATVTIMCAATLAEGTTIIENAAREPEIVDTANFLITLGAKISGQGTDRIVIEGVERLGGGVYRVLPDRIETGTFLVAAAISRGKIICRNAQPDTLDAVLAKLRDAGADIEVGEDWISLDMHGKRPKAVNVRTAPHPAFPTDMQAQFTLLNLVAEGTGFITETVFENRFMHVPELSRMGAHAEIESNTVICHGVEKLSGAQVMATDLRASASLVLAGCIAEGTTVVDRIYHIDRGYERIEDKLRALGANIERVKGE

| SMILES | MIC (S. faecalis (MTCC- 0459)) | potency relative to penicillin G (times greater) [1] | MIC [1] | also measured |
| --- | --- | --- | --- | --- |
| Cc1ccc(-c2cc(-c3ccc(OCc4ccccc4)cc3)nc3c(N=Nc4ccc(F)cc4)c(N)nn23)cc1 [Compound 4a, 5-(4-(Benzyloxy)phenyl)-3-((4-fluorophenyl)diazenyl)-7-(p-tolyl)pyrazolo[1,5-a]pyrimidin-2-amine] | 3.91 µg/mL (≈ 7.4 µM) | – | – | antibacterial potency relative to penicillin G (times greater) (S. faecalis (MTCC- 0459)): 8 times |
| Cc1ccc(N=Nc2c(N)nn3c(-c4ccc(C)cc4)cc(-c4ccc(OCc5ccccc5)cc4)nc23)cc1 [Compound 4b, 5-(4-(Benzyloxy)phenyl)-7-(p-tolyl)-3-(p-tolyldiazenyl)pyrazolo[1,5-a]pyrimidin-2-amine] | 15.6 µg/mL (≈ 29.7 µM) | 4 fold | 15.6 µg/mL (≈ 29.7 µM) | MIC (E. coli (ATCC- 25955)): 1.95 µg/mL (≈ 3.72 µM) |
| COc1ccc(N=Nc2c(N)nn3c(-c4ccc(C)cc4)cc(-c4ccc(OCc5ccccc5)cc4)nc23)cc1 [Compound 4c, 5-(4-(Benzyloxy)phenyl)-3-((4-methoxyphenyl)diazenyl)-7-(p-tolyl)pyrazolo[1,5-a]pyrimidin-2-amine] | 15.6 µg/mL (≈ 28.9 µM) | 8 fold | 7.81 µg/mL (≈ 14.4 µM) | hemolysis [2]: 7.1%; MIC (E. coli (ATCC- 25955)): 1.95 µg/mL (≈ 3.61 µM); hemolysis [3]: 3.3% |
| Nc1nn2c(-c3ccc(Cl)cc3Cl)cc(-c3ccc(OCc4ccccc4)cc3)nc2c1N=Nc1ccc(F)cc1 [Compound 4d, 5-(4-(Benzyloxy)phenyl)-7-(2,4-dichlorophenyl)-3-((4-fluorophenyl)diazenyl)pyrazolo[1,5-a]pyrimidin-2-amine] | – | – | – | MIC [4]: 15.6 µg/mL (≈ 26.7 µM) |
| Cc1ccc(N=Nc2c(N)nn3c(-c4ccc(Cl)cc4Cl)cc(-c4ccc(OCc5ccccc5)cc4)nc23)cc1 [Compound 4e, 5-(4-(Benzyloxy)phenyl)-7-(2,4-dichlorophenyl)-3-(p-tolyldiazenyl)pyrazolo[1,5-a]pyrimidin-2-amine] | 7.81 µg/mL (≈ 13.5 µM) | – | – | antibacterial potency relative to penicillin G (times greater) (S. faecalis (MTCC- 0459)): 4 times |
| COc1ccc(N=Nc2c(N)nn3c(-c4ccc(Cl)cc4Cl)cc(-c4ccc(OCc5ccccc5)cc4)nc23)cc1 [Compound 4f, 5-(4-(Benzyloxy)phenyl)-7-(2,4-dichlorophenyl)-3-((4-methoxyphenyl)diazenyl)pyrazolo[1,5-a]pyrimidin-2-amine] | 15.6 µg/mL (≈ 26.2 µM) | 8 fold | 7.81 µg/mL (≈ 13.1 µM) | – |
| Nc1nn2c(-c3ccco3)cc(-c3ccc(OCc4ccccc4)cc3)nc2c1N=Nc1ccc(F)cc1 [Compound 4g, 5-(4-(Benzyloxy)phenyl)-3-((4-fluorophenyl)diazenyl)-7-(furan-2-yl)pyrazolo[1,5-a]pyrimidin-2-amine] | 1.95 µg/mL (≈ 3.87 µM) | 16 fold | 3.91 µg/mL (≈ 7.75 µM) | antibacterial potency relative to penicillin G (times greater) (S. faecalis (MTCC- 0459)): 16 times |
| Cc1ccc(N=Nc2c(N)nn3c(-c4ccco4)cc(-c4ccc(OCc5ccccc5)cc4)nc23)cc1 [Compound 4h, 5-(4-(Benzyloxy)phenyl)-7-(furan-2-yl)-3-(p-tolyldiazenyl)pyrazolo[1,5-a]pyrimidin-2-amine] | 15.6 µg/mL (≈ 31.2 µM) | 16 fold | 3.91 µg/mL (≈ 7.81 µM) | MIC [4]: 15.6 µg/mL (≈ 31.2 µM) |
| COc1ccc(N=Nc2c(N)nn3c(-c4ccco4)cc(-c4ccc(OCc5ccccc5)cc4)nc23)cc1 [Compound 4i, 5-(4-(Benzyloxy)phenyl)-7-(furan-2-yl)-3-((4-methoxyphenyl)diazenyl)pyrazolo[1,5-a]pyrimidin-2-amine] | – | 4 fold | 15.6 µg/mL (≈ 30.2 µM) | MIC [5]: 15.6 µg/mL (≈ 30.2 µM); MBC/MIC [6]: 8 |
| CC1(C)S[C@@H]2[C@H](NC(=O)Cc3ccccc3)C(=O)N2[C@H]1C(=O)O [Penicillin G, penicillin G, reference compound] | 31.5 µg/mL (≈ 94.2 µM) | – | 62.5 µg/mL (≈ 187 µM) | – |
| C[C@@H]1O[C@@H]1P(=O)(O)O [fosfomycin, Fosfomycin] | – | – | – | IC50 (E. coli MurA): 69.8 µM |
